Experimental data reported in the NIST ThermoML archive (doi:10.1021/acs.jced.8b00600).
Numbers after ± are expanded uncertainties.

How the values were obtained:
[1] = refractive index (Na D-line) (dimensionless); xn = mol fraction of the nth substance listed; details: 313.15 K; 101.3 kPa; Liquid; Standard Abbe refractometry; x2 = 0.333
[2] = xn = mol fraction of the nth substance listed; details: 313.15 K; 101.3 kPa; Liquid; Vibrating tube method; x2 = 0.333

OCCCCCCO [1,6-hexanediol] + CCC[N+](CCC)(CCC)CCC.[Br-]
refractive index [1]: 1.47923 ± 0.002 | mass density [2]: 1042.25 ± 2 kg/m3
